Patent US20240343710A1, “HETEROCYCLIC COMPOUNDS AND METHODS OF USE THEREOF” (1cBio, Inc., priority 2023, published 2024)
Where a name gives a salt, the structure may show the parent alone. Read-outs that look alike come from different tables or passages of the source.

Assays:
recombinant human PARP1 = recombinant human PARP1 (Homo sapiens, UniProt P09874); test: PARP1 fluorescence polarization binding assay; conditions: GST-tagged PARP1 20 nM, PARP1-FL probe 3 nM
Method: In some embodiments, the biological assay is described in the Examples herein. In some embodiments, the biological assay measures PARP-1 binding by way of fluorescence polarization measurements. In some embodiments, binding of a test compound to recombinant human PARP-1 reduces the amount of binding of a fluorescent probe, and consequently reduces the detected level of fluorescence polarization. In some test compound stock solutions are prepared in a solvent, e.g., DMSO, and are serially diluted into a range of concentrations, e.g., 15 concentrations, 14 concentrations, 13 concentrations, 12 concentrations, 11 concentrations, 10 concentrations, 9 concentrations, 8 concentrations, 7 concentrations, 6 concentrations, or 5 concentrations, by a dilution factor, e.g., a 10-fold dilution factor, a 9-fold dilution factor, an 8-fold dilution factor, a 7-fold dilution factor, a 6-fold dilution factor, a 5-fold dilution factor, a 4-fold dilution factor, a 3-fold dilution factor, or a 2-fold dilution factor. In some embodiments, the serial dilutions, e.g., 100 nL of serial dilution, 90 nL of serial dilution, 80 nL of serial dilution, 70 nL of serial dilution, 60 nL of serial dilution, 50 nL of serial dilution, 30 nL of serial dilution, 20 nL of serial dilution, or 10 nL of serial dilution, are added to a multi-welled plate, e.g., a 1536-well plate, a 384-well plate, or a 96-well plate. In some embodiments, PARP-1, e.g., GST-tagged PARP-1, is diluted in assay buffer, e.g., 50 μL of assay buffer, 40 μL of assay buffer, e.g., 30 μL of assay buffer, 20 μL of assay buffer, 10 μL of assay buffer, or 5 μL of assay buffer, and is added to the plate. In some embodiments, the plate is centrifuged, e.g., at 1000 rpm for 1 min, and incubated, e.g., incubated for 30 minutes at room temperature (RT). In some embodiments, a fluorescent probe, e.g., 10 μL of 6 nM PARP1-FL (TOCRIS, Cat #6461), is diluted in an assay buffer and is added to the plate. In some embodiments, the final concentrations of PARP-1 and fluorescent probe are 20 nM and 3 nM, respectively, in a total volume of 20 μL. In some embodiments, the plate is centrifuged, e.g., at 1000 rpm for 1 minute, and the assay plate is incubated, e.g., for 4 h at RT. In some embodiments, the samples in each well are read using a plate reader, e.g., an Envision instrument using excitation=480 nm, and emission wavelength=FITC FP-P pol 535 nm & FITC FP-S pol 535 nm). In some embodiments, percent inhibition is calculated from mP values using Inhibition (%)=[1−(mPc−mPL)/(mPH−mPL)]×100%, where mPc, mPL, and mPH are the mP values of test compound, Low controls, and High controls, respectively. In some embodiments, binding IC50 values are calculated using XLFit (equation 201: y=A+((B−A)/(1+((x/C)^D))), where A=bottom, B=top, C=IC50, and D=slope) with a floating top and bottom for curves.
Compounds of the present disclosure were tested in a PARP1 fluorescence polarization binding assay at Pharmaron (Beijing, P.R. China). In this biochemical assay, binding of test compound to recombinant human PARP1 reduces the amount of binding of a fluorescent probe, and consequently reduces the detected level of fluorescence polarization. Test compound stock solutions were prepared in DMSO and then serially diluted into 10 concentrations by 3-fold dilution in a 384-well plate using a TECAN EVO200. Alternatively, a single concentration was prepared. 60 nL of each dilution was transferred to the plate using an Echo550 (Labcyte), and then 10 μL 40 nM GST-tagged PARP1 (BPS Bioscience, Cat #80501), diluted in assay buffer (50 mM Tris pH 8.0, 0.001% Triton X-100, 10 mM MgCl2, 150 mM NaCl), was added to the plate. After a centrifugation at 1000 rpm for 1 min, the assay plate was incubated for 30 min at RT. 10 μL 6 nM PARP1-FL (TOCRIS, Cat #6461), diluted using assay buffer, was then added to the plate. The final concentrations of PARP1 and PARP1-FL were 20 nM and 3 nM, respectively, in a total volume of 20 μL. […]

[1] = system: DLD-1 wild-type colorectal adenocarcinoma cells; test: Cell viability assay (Cell Titer-Glo, 7 days), DLD-1 wild-type; format: cell-based; conditions: Homo sapiens, 168 h, DLD-1 wild-type cells, read-out: DLD-1 wild-type % inh at 10 μM
Description: (§1) In some embodiments, the biological assay measures the effects that compounds of the present disclosure may have on the viability of cells, e.g., the viability of cancer cells. In some embodiments, DLD-1 wild-type and DLD-1 BRCA2(−/−) colorectal adenocarcinoma cells, an isogenic pair of cell lines differing in the presence and absence, respectively, of both BRCA2 alleles, are used to measure the effect of the disclosed compounds on the viability of cancer cells. In some embodiments, the cells are harvested during the logarithmic growth period, counted, and seeded at a specified count in the wells of a 96- or 384-well cell culture plate. In some embodiments, after seeding, the cells are incubated, e.g., at 37° C., 5% CO2 overnight. In some embodiments, the cells are treated with compounds, e.g., with serially diluted test compounds at 8-11 concentrations within a desired concentration range, e.g., from 1 nM-10 μM, for the generation of dose-response curves. In some embodiments, the plate is further incubated, e.g., for another 3-7 days in a humidified incubator at 37° C. and 5% CO2. In some embodiments, cell viability is assessed by luminescence measurement after addition of Cell Titer-Glo reagent (Promega, Madison, Wis.) according to the manufacturer's instructions. In some embodiments, cell viability IC50 values are calculated using XLFit, equation 201: y=A+((B−A)/(1+((x/C)^D))), where A=bottom, B=top, C=IC50, and D=slope. In some embodiments, the effects of the test compounds on the viability of other cell lines such as MDA-MB-436, MDA-MB-231, SUM149PT, HCC1395, and UWB1.289 are determined in an analogous method.
(§2) Compounds of the present disclosure were tested for their effects on the viability of cancer cells. DLD-1 wild-type and DLD-1 BRCA2(−/−) colorectal adenocarcinoma cells, an isogenic pair of cell lines differing in the presence and absence, respectively, of both BRCA2 alleles, were used. The cells were harvested during the logarithmic growth period, counted, and seeded at 50 cells/well for DLD-1 wild-type and 200 cells/well for DLD-1 BRCA2(−/−) in a 384-well cell culture plate. After seeding, cells were incubated at 37° C., 5% CO2 overnight. Cells were treated with serially diluted test compounds at 10 concentrations (e.g., from 1.5 nM-30 μM) for generation of dose response curves, or at a single concentration. The plate was further incubated for another 7 days in a humidified incubator at 37° C. and 5% CO2. Cell viability was assessed by luminescence measurement after addition of Cell Titer-Glo reagent (Promega, Madison, Wis.) according to the manufacturer's instructions. Cell viability IC50 values were calculated using XLFit, equation 201. y=A+((B−A)/(1+((x/C)^D))), where A=bottom, B=top, C=IC50, and D=slope. IC50 values are shown in Table B and are presented in ranges, in which “+++”<300 nM, 300 nM≤“++”<3000 nM, and “+”≥3000 nM. Values for percent inhibition at 10 μM are also shown in Table B and are presented in ranges, in which “***”≥67%, 33%: “**”≤67%, and “*”<33%. Effects of the test compounds on the viability of other cell lines such as MDA-MB-436, MDA-MB-231, SUM149PT, HCC1395, and UWB1.289 are determined in an analogous method.

[2] = system: DLD-1 BRCA2(−/−) colorectal adenocarcinoma cells; test: Cell viability assay (Cell Titer-Glo, 7 days), DLD-1 BRCA2(−/−); format: cell-based; conditions: Homo sapiens, 168 h, DLD-1 BRCA2(−/−) cells
Description: as §1, §2

recombinant human PARP2 = recombinant human PARP2 (Homo sapiens, UniProt Q9UGN5); test: PARP2 fluorescence polarization binding assay; conditions: read-out: PARP2 % inh at 10 μM
[3] = percent inhibition at 10 μM, fluorescence polarization, GST-tagged PARP2 20 nM, PARP1-FL probe 3 nM

Chain of recombinant human PARP1 (P09874 whole entry): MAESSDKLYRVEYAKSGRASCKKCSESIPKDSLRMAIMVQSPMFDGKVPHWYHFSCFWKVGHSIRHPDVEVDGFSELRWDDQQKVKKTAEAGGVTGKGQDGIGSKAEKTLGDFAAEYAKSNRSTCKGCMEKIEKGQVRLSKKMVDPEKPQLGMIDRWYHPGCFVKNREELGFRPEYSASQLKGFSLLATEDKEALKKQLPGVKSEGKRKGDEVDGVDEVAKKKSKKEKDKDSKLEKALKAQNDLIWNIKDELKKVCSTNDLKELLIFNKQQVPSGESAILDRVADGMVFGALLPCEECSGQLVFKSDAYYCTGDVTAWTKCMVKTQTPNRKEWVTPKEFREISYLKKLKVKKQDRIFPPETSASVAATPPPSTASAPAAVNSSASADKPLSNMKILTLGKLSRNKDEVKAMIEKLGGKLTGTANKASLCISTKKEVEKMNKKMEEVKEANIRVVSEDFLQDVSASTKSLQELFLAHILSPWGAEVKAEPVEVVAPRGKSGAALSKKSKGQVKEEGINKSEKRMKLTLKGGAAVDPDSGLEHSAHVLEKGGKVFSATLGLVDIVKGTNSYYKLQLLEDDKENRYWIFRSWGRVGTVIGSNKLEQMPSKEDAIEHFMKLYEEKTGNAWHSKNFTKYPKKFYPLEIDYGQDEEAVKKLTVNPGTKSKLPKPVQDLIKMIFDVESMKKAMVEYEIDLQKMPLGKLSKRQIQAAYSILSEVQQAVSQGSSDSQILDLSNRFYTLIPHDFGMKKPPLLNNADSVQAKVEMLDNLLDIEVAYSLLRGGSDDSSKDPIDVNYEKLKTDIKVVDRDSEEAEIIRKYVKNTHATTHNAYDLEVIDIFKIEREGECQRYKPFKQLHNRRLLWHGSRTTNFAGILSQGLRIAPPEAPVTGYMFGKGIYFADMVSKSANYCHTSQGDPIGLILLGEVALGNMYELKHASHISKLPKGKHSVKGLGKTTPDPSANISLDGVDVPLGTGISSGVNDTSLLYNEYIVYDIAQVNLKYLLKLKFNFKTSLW
Chain of recombinant human PARP2 (Q9UGN5 whole entry): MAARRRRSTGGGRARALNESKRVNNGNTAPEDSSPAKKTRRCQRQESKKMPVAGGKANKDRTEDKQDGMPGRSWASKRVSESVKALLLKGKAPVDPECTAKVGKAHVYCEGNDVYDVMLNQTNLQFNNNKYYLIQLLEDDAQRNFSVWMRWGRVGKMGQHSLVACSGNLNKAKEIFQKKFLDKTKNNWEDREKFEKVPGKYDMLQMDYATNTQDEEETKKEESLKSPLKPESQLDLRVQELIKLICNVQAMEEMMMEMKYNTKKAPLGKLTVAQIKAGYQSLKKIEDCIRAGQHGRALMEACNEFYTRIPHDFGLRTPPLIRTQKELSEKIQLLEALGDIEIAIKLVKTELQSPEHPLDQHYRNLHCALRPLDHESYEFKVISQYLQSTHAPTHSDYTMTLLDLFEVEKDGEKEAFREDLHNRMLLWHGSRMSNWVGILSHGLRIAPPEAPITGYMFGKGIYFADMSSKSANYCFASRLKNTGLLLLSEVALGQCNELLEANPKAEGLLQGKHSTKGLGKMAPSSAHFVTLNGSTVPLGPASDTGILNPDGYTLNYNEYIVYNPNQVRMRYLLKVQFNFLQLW

Row | SMILES | IC50 (recombinant human PARP1) [nM] | IC50 [2] [nM] | inhibition at 10 µM (recombinant human PARP2; [3]) [%] | inhibition at 10 µM [1] [%] | inhibition at 10 µM (recombinant human PARP2) [%]
1 | CCNC(=O)Nc1nccc(CN2CCN(c3ccc(C(=O)NC)nc3C)CC2)c1C [Compound 260, 5-(4-((2-(3-ethylureido)-3-methylpyridin-4-yl)methyl)piperazin-1-yl)-N,6-dimethylpicolinamide hemiformate] | < 100 | 300 to 3000 |  | < 33 | < 33
2 | CCNC(=O)Nc1cc(CN2CCN(c3ccc(C#N)cn3)CC2)ccn1 [Compound 263, 1-(4-((4-(5-cyanopyridin-2-yl)piperazin-1-yl)methyl)pyridin-2-yl)-3-ethylurea] | < 100 | < 300 | < 33 | < 33 | 
3 | CCNC(=O)Nc1cc(CN2CCN3c4ccc(C(=O)NC)nc4OC[C@H]3C2)ccn1 [Compound 264, (R)-3-((2-(3-ethylureido)pyridin-4-yl)methyl)-N-methyl-1,2,3,4,4a,5-hexahydropyrazino[1,2-d]pyrido[2,3-b][1,4]oxazine-8-carboxamide] | < 100 | < 300 | 33 to 67 | < 33 | 
4 | CCNC(=O)Nc1cc(CN2CCN(c3ccc(C#N)nc3)CC2)ccn1 [Compound 267, 1-(4-((4-(6-cyanopyridin-3-yl)piperazin-1-yl)methyl)pyridin-2-yl)-3-ethylurea formate] | < 100 | < 300 |  | < 33 | < 33
5 | CCNC(=O)Nc1nccc(CN2CCN(c3ccc(C#N)cn3)CC2)c1F [Compound 268, 1-(4-((4-(5-cyanopyridin-2-yl)piperazin-1-yl)methyl)-3-fluoropyridin-2-yl)-3-ethylurea] | < 100 | < 300 | < 33 | < 33 | 
6 | CCNC(=O)Nc1cc(CN2CCN(c3ccc(NC(C)=O)nc3C)CC2)ccn1 [Compound 269, N-(5-(4-((2-(3-ethylureido)pyridin-4-yl)methyl)piperazin-1-yl)-6-methylpyridin-2-yl)acetamide] | < 100 | < 300 | < 33 | < 33 | 
7 | CCNC(=O)Nc1cc(CN2CCN(c3ccc(-c4ncc[nH]4)nc3C)CC2)ccn1 [Compound 272, 1-(4-((4-(6-(1H-imidazol-2-yl)-2-methylpyridin-3-yl)piperazin-1-yl)methyl)pyridin-2-yl)-3-ethylurea formate] | < 100 | < 300 |  | < 33 | < 33

More lines, main results first:

Row | IC50 (recombinant human PARP1) [nM] | IC50 [2] [nM] | inhibition at 10 µM (recombinant human PARP2; [3]) [%] | SMILES | inhibition at 10 µM [1] [%] | inhibition at 10 µM (recombinant human PARP2) [%]
8 | < 100 | < 300 | < 33 | CCNC(=O)Nc1ncc(CN2CCN(c3ccc(C(=O)NC)nc3C)CC2)o1 [Compound 246, 5-(4-((2-(3-ethylureido)oxazol-5-yl)methyl)piperazin-1-yl)-N,6-dimethylpicolinamide] | < 33 | 
9 | < 100 | 300 to 3000 | 33 to 67 | CCNC(=O)Nc1cc(CN2CCN(c3cnc4c(NC)nccc4c3)CC2)ccn1 [Compound 257, 1-ethyl-3-(4-((4-(8-(methylamino)-1,7-naphthyridin-3-yl)piperazin-1-yl)methyl)pyridin-2-yl)urea] | < 33 | 
10 | < 100 | 300 to 3000 | < 33 | CNC(=O)c1ccc(N2CCN(Cc3ccnc(NC(=O)NC(C)C)c3)CC2)c(C)n1 [Compound 259, 5-(4-((2-(3-isopropylureido)pyridin-4-yl)methyl)piperazin-1-yl)-N,6-dimethylpicolinamide] | < 33 | 
11 | < 100 | < 300 | < 33 | CNC(=O)c1ccc(N2CCN(Cc3ccnc(NC(=O)NCCF)c3)CC2)c(C)n1 [Compound 261, 5-(4-((2-(3-(2-fluoroethyl)ureido)pyridin-4-yl)methyl)piperazin-1-yl)-N,6-dimethylpicolinamide] | < 33 | 
12 | < 100 | < 300 | < 33 | CNC(=O)c1ccc(N2CCN(Cc3ccnc(NC(=O)NCC(F)F)c3)CC2)c(C)n1 [Compound 262, 5-(4-((2-(3-(2,2-difluoroethyl)ureido)pyridin-4-yl)methyl)piperazin-1-yl)-N,6-dimethylpicolinamide] | < 33 | 
